In publication PMC7802075 (ACS Infectious Diseases, 2020):
Read-outs that look alike come from different tables or passages of the source.

Biological target: T1, LmjIPCS (inositol phosphorylceramide synthase from L. major) (Leishmania major, UniProt E9AFX2)
T1 sequence (E9AFX2 1-338): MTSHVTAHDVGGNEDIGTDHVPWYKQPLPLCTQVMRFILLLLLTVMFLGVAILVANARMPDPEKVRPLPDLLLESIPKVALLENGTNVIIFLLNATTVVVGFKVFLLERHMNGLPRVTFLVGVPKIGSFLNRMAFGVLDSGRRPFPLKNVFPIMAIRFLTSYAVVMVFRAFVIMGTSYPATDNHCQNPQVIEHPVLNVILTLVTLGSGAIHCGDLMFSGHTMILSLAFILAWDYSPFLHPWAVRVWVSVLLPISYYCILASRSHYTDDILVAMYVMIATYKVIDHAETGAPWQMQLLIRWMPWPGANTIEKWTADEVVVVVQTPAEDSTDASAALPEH
Assay: biochemical
Assay type: biochemical
Parameters: inhibition: dose or concentration left out as unconfirmed
Conditions: for inhibition at 20000 µM: read-out: 20mM inhibition LmjIPCS; for inhibition: read-out: inhibition LmjIPCS

[1] = NINDS set screen, single concentration printed as 20mM
[2] = NINDS set screen, compound at 20mM (so in the source)
[3] = screening of NINDS set, sheet Screen 1
[4] = single concentration 20mM as printed, screening of NINDS set, sheet Screen 1

With `CO[C@H]1/C=C/O[C@@]2(C)Oc3c(C)c(O)c4c(O)c(c(/C=N/N5CCN(C)CC5)c(O)c4c3C2=O)NC(=O)/C(C)=C\C=C\[C@H](C)[C@H](O)[C@@H](C)[C@@H](O)[C@@H](C)[C@H](OC(C)=O)[C@@H]1C` [RIFAMPIN] the inhibition at 20000 µM was 27%.

In the case of `CC(C)[N+](C)(CCOC(=O)C1c2ccccc2Oc2ccccc21)C(C)C` [PROPANTHELINE BROMIDE], the “20mM inhibition LmjIPCS” value [1] is reported as 35%.

`COC(=O)[C@H]1[C@H]2C[C@H]3c4[nH]c5cc(OC)ccc5c4CCN3C[C@H]2C[C@@H](OC(=O)c2cc(OC)c(OC)c(OC)c2)[C@@H]1OC` [ISORESERPINE] was tested, and the “20mM inhibition LmjIPCS” value was 47%.

With `CC1=NCCc2c1[nH]c1cc(O)ccc21` [HARMALOL] the inhibition (NINDS set screen) was 17%.

In the case of `COc1ccc2cc1Oc1ccc(cc1)C[C@H]1c3c(cc4c(c3Oc3cc5c(cc3OC)CCN(C)[C@@H]5C2)OCO4)CCN1C` [CEPHARANTHINE], the “20mM inhibition LmjIPCS” value is reported as 59%.

For `CCN(CC)CCNC(=O)c1ccc(N)cc1` [PROCAINAMIDE], the inhibition was 19%.

`CCN1CCN(C(=O)N[C@@H](C(=O)N[C@@H]2C(=O)N3C(C(=O)O)=C(CSc4nnnn4C)CS[C@H]23)c2ccc(O)cc2)C(=O)C1=O` [CEFOPERAZONE] gave an inhibition at 20000 µM of 13%.

`C=CCc1ccc2c(c1)OCO2` [SAFROLE] gave an inhibition at 20000 µM of 1.28%.

In the case of `O=C1c2ccccc2C(=O)c2c(O)c(O)cc(O)c21` [PURPURIN], the “20mM inhibition LmjIPCS” value is reported as 35%.

Work on `Oc1ccc(Cl)cc1` [PARACHLOROPHENOL] yielded an inhibition at 20000 µM of 12%.

For `CC[C@H]1CN2CC[C@H]1C[C@@H]2[C@@H](O)c1ccnc2ccc(OC)cc12` [HYDROQUINIDINE], the “20mM inhibition LmjIPCS” value [1] was 58%.

`C1CNCCN1` [PIPERAZINE] gave an inhibition at 20000 µM of 5.42%.

Work on `C#C[C@]1(O)CC[C@H]2[C@@H]3CCC4=CC(=O)CC[C@]4(C)[C@H]3CC[C@@]21C` [ETHISTERONE] yielded an inhibition at 20000 µM of 2.43%.

For `N.N.O=C([O-])C1(C(=O)[O-])CCC1.[Pt+2]` [CARBOPLATIN], the “20mM inhibition LmjIPCS” value [2] was 16%.

In the case of `Cn1c(=O)[nH]c(=O)c2[nH]cnc21` [3-METHYLXANTHINE], the inhibition at 20000 µM is reported as 12%.

`C[N+](C)(C)CCOP(=O)(O)OP(=O)([O-])OC[C@H]1O[C@@H](n2ccc(N)nc2=O)[C@H](O)[C@@H]1O` [CITICOLINE] gave an inhibition at 20000 µM of 0.108%.

`CC(C)(C)NCC(O)c1cc(O)cc(O)c1` (centres unmarked) [TERBUTALINE] was tested, and the inhibition [3] was 9%.

For `O=C(O)CCCCCCCC(=O)O` [AZELAIC ACID], the “20mM inhibition LmjIPCS” value [1] was 38%.

Molecule `CCCCC1(COC(=O)CCC(=O)O)C(=O)N(c2ccccc2)N(c2ccccc2)C1=O` [SUXIBUZONE] has an inhibition of 7%.

`CC(=O)CCCCn1c(=O)c2c(ncn2C)n(C)c1=O` [PENTOXIFYLLINE] showed an inhibition of 5.62%.

For `CC1=NN(c2ccccc2)C(=O)C1` [3-METHYL-1-PHENYL-2-PYRAZOLIN-5-ONE], the “20mM inhibition LmjIPCS” value was 4.33%.

In the case of `CC(NCCc1ccc(O)cc1)C(O)c1ccc(O)cc1` (centres unmarked) [RITODRINE], the “20mM inhibition LmjIPCS” value is reported as 58%.

For `CC(=O)OCC[N+](C)(C)C` [ACETYLCHOLINE], the “20mM inhibition LmjIPCS” value was 58%.

`CCOC(=O)n1ccn(C)c1=S` [CARBIMAZOLE] gave an inhibition of 12%.

Molecule `NC(=O)C[S+]([O-])C(c1ccccc1)c1ccccc1` (centres unmarked) [MODAFINIL] has an inhibition at 20000 µM of 13%.

In the case of `Cc1cc2cc3c(C)cc(=O)oc3c(C)c2o1` [TRIOXSALEN], the “20mM inhibition LmjIPCS” value [1] is reported as 42%.

With `CNC(=O)Oc1ccc2c(c1)[C@]1(C)CCN(C)[C@@H]1N2C` [PHYSOSTIGMINE] the inhibition at 20000 µM was 15%.

`COCCc1ccc(OCC(O)CNC(C)C)cc1` (centres unmarked) [METOPROLOL] gave an inhibition at 20000 µM of 21%.

For `CN(C)CCC(c1ccc(Br)cc1)c1ccccn1` (centres unmarked) [BROMPHENIRAMINE], the inhibition at 20000 µM was 14%.

Molecule `CN[C@@H]1[C@H](O)[C@H](NC)[C@H]2O[C@@]3(O)C(=O)C[C@@H](C)O[C@H]3O[C@@H]2[C@H]1O` [SPECTINOMYCIN] has an inhibition at 20000 µM of 19%.

`N=C(NCCC[C@H](N)C(=O)O)N[N+](=O)[O-]` [N (g)-NITRO-L-ARGININE] was tested, and the “20mM inhibition LmjIPCS” value was 1.68%.

For `Cn1c(=O)[nH]c2nc[nH]c2c1=O` [1-METHYLXANTHINE], the inhibition [3] was 11%.

For `CC1(C)[C@H]2CC[C@@]1(C)C(=O)C2` [1R-CAMPHOR], the “20mM inhibition LmjIPCS” value [1] was 46%.

`CC(=O)OCC(=O)[C@@]1(O)CC[C@H]2[C@@H]3C[C@H](C)C4=CC(=O)C=C[C@]4(C)[C@H]3[C@@H](O)C[C@@]21C` [6alpha-METHYLPREDNISOLONE ACETATE] was tested, and the “20mM inhibition LmjIPCS” value [4] was 9%.

`CN(C)CCC=C1c2ccccc2C=Cc2ccccc21` [CYCLOBENZAPRINE] was tested, and the inhibition at 20000 µM was -2.37%.

With `NC(=O)NO` [HYDROXYUREA] the “20mM inhibition LmjIPCS” value [4] was 11%.

Molecule `N[C@@H]1CON=C1O` [CYCLOSERINE] has an inhibition of -1.4%.

Work on `CC(=O)OCC(=O)[C@@]1(O)CC[C@H]2[C@@H]3CCC4=CC(=O)CC[C@]4(C)[C@H]3[C@@H](O)C[C@@]21C` [HYDROCORTISONE ACETATE] yielded an inhibition at 20000 µM of 7%.

For `Cc1ccccc1OCC(O)CO` (centres unmarked) [MEPHENESIN], the inhibition [3] was 3.35%.

In the case of `CSCC[C@H](NC=O)C(=O)N[C@@H](CC(C)C)C(=O)N[C@@H](Cc1ccccc1)C(=O)O`, the inhibition at 20000 µM is reported as 19%.

`C/C=C1\[C@H]2C=C(C)C[C@]1(N)c1ccc(=O)[nH]c1C2` [HUPERZINE A] was tested, and the inhibition at 20000 µM was 24%.

In the case of `C[C@]12CCC(=O)C=C1CC[C@@H]1[C@@H]2[C@@H](O)C[C@@]2(C)[C@H]1CC[C@]2(O)C(=O)COC(=O)CCC(=O)O` [HYDROCORTISONE HEMISUCCINATE], the “20mM inhibition LmjIPCS” value [2] is reported as 18%.

With `CC1(C)OC(=O)NC1=O` [DIMETHADIONE] the inhibition [3] was 6.6%.

In the case of `CC[C@H]1OC(=O)[C@H](C)[C@@H](O[C@H]2C[C@@](C)(OC)[C@@H](O)[C@H](C)O2)[C@H](C)[C@@H](O[C@@H]2O[C@H](C)C[C@H](N(C)C)[C@H]2O)[C@](C)(OC)C[C@@H](C)C(=O)[C@H](C)[C@@H](O)[C@]1(C)O` [CLARITHROMYCIN], the inhibition [3] is reported as 5.71%.

With `C[C@]12CCC(=O)C=C1C=C[C@@H]1[C@@H]2CC[C@@]2(C)[C@H]1CC[C@@]2(O)CCC(=O)O` [CANRENOIC ACID] the inhibition was 7%.

`CS(=O)(=O)OCCCCOS(C)(=O)=O` [BUSULFAN] was tested, and the “20mM inhibition LmjIPCS” value [1] was 44%.

`CC[C@@H]1C(=O)OC[C@@H]1Cc1cncn1C` [PILOCARPINE] showed an inhibition (NINDS set screen) of -4.6%.

In the case of `C=C[C@@]1(C)CC(=O)[C@]2(O)[C@@]3(C)[C@@H](O)CCC(C)(C)[C@@H]3[C@H](O)[C@H](OC(C)=O)[C@@]2(C)O1` [COLFORSIN], the “20mM inhibition LmjIPCS” value [1] is reported as 51%.

`CC(C)N(CCC(C(N)=O)(c1ccccc1)c1ccccn1)C(C)C` (centres unmarked) [DISOPYRAMIDE] gave an inhibition of 10%.

In the case of `CCN(CC)CCNc1ccc(CO)c2sc3ccccc3c(=O)c12` [HYCANTHONE], the “20mM inhibition LmjIPCS” value is reported as 46%.

In the case of `CCC1(CC)C(=O)C=CNC1=O` [PYRITHYLDIONE], the “20mM inhibition LmjIPCS” value is reported as 52%.

Work on `CC(C(=O)O)c1ccc(C(=O)c2cccs2)cc1` (centres unmarked) [SUPROFEN] yielded an inhibition at 20000 µM of 5%.

`C[C@H]1c2cccc(O)c2C(=O)C2=C(O)[C@]3(O)C(=O)C(C(N)=O)=C(O)[C@@H](N(C)C)[C@@H]3[C@@H](O)[C@@H]21` [DOXYCYCLINE] gave an inhibition (NINDS set screen) of 30%.

`COc1ccc(/C=C/C(=O)Nc2ccccc2C(=O)O)cc1OC` was tested, and the inhibition [3] was 6.57%.

`CC[C@@H](CO)NC(=O)[C@@H]1C=C2c3cccc4[nH]cc(c34)C[C@H]2N(C)C1` [METHYLERGONOVINE] was tested, and the “20mM inhibition LmjIPCS” value was 35%.

`O=c1cc(-c2ccc(O)cc2)oc2cc(O)cc(O)c12` [APIGENIN] was tested, and the “20mM inhibition LmjIPCS” value was 59%.

In the case of `Nc1ccn([C@@H]2O[C@H](CO)[C@@H](O)[C@@H]2O)c(=O)n1` [CYTARABINE], the inhibition is reported as -1.69%.

Molecule `c1ccc([C@H]2CN3CCSC3=N2)cc1` [LEVAMISOLE] has an inhibition at 20000 µM of 2.52%.

Work on `Cc1cc(C)cc(OCC2CNC(=O)O2)c1` (centres unmarked) [METAXALONE] yielded an inhibition (NINDS set screen) of -4.75%.
